Reference: patent US9796700B2 (Celgene CAR LLC, priority 2013, dated 2017)

target: Erk1 (Homo sapiens (Human), UniProt P27361); test: Protein Mass Modification Assay (intact protein MALDI); assay type: binding
Method: Protein Mass Modification Assay
Intact protein: Erk1 from Millipore (Cat. No. 14-439) was incubated for 60 min. at room temperature with a 10-fold excess of test compound to protein. 4 μL aliquots of the resulting mixture were diluted with 15 μL of 0.2% TFA prior to micro C4 ZipTipping directly onto the MALDI target using sinapinic acid as the desorption matrix (10 mg/ml in 0.1% TFA:Acetonitrile 50:50, v/v). The centroid mass of the target protein in the control sample was compared with the centroid mass of the target protein incubated with compound. A shift in the centroid mass of the treated protein compared to the untreated protein was divided by the molecular weight of the compound. This number corresponds to the percentage of modified protein after one hour incubation. Results from this assay are reported in Table A under the column “ERK1 Mass Mod (%).”

Erk1, sequence (P27361 whole entry, looked up): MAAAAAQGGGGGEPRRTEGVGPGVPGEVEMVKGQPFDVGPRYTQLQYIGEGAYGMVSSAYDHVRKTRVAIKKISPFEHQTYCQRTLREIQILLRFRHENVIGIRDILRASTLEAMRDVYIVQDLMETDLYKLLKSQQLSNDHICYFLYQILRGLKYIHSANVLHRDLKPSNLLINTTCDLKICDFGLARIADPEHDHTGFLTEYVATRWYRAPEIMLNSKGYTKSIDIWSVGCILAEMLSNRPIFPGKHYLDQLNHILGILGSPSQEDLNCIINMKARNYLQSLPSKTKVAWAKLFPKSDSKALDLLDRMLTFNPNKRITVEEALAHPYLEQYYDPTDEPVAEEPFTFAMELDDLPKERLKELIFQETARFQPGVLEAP

Structure (SMILES) | ERK1 Mass Mod (%)
C=CC(=O)Nc1ccccc1Nc1nc(Nc2ccc3c(c2OC)CCCC(=O)N3CCN2CCOCC2)ncc1C(N)=O [Compound I-252, 4-((2-acrylamidophenyl)amino)-2-((6-methoxy-1-(2-morpholinoethyl)-2-oxo-2,3,4,5-tetrahydro-1H-benzo[b]azepin-7-yl)amino)pyrimidine-5-carboxamide] | F (provided a mass modification of 31-69%)
C=CC(=O)Nc1ccccc1Nc1nc(Nc2cc(C(=O)NOC)ccc2OC)ncc1C(F)(F)F [Compound I-67, 3-((4-((2-Acrylamidophenyl)amino)-5-(trifluoromethyl)pyrimidin-2-yl)amino)-N,4-dimethoxybenzamide] | E (provided a mass modification of ≧70%)
C=CC(=O)Nc1ccccc1Nc1nc(Nc2cc(C(=O)NOCCO)ccc2OC)ncc1Cl [Compound I-194, 3-((4-((2-acrylamidophenyl)amino)-5-chloropyrimidin-2-yl)amino)-N-(2-hydroxyethoxy)-4-methoxybenzamide] | E (provided a mass modification of ≧70%)
C=CC(=O)Nc1ccccc1Nc1nc(N[C@H]2CCCN(C=O)C2)ncc1Cl [Compound I-122, (S)—N-(2-((5-chloro-2-((1-formylpiperidin-3-yl)amino)pyrimidin-4-yl)amino)phenyl)acrylamide] | E (provided a mass modification of ≧70%)
C=CS(=O)(=O)Nc1cc(C)ccc1Nc1nc(Nc2cc(OC)ncc2C)ncc1C(F)(F)F [Compound I-333, N-(2-((2-((2-methoxy-5-methylpyridin-4-yl)amino)-5-(trifluoromethyl)pyrimidin-4-yl)amino)-5-methylphenyl)ethenesulfonamide] | E (provided a mass modification of ≧70%)
C=CC(=O)Nc1cc(C)ccc1Nc1nc(Nc2cc(C(=O)NCCO)c(F)cc2C)ncc1Cl [Compound I-234, 5-((4-((2-acrylamido-4-methylphenyl)amino)-5-chloropyrimidin-2-yl)amino)-2-fluoro-N-(2-hydroxyethyl)-4-methylbenzamide] | F (provided a mass modification of 31-69%)
C=CC(=O)N[C@@H]1CCCC[C@H]1Oc1nc(Nc2cc(C(N)=O)ccc2C)ncc1C(N)=O (racemic) [Compound I-268, Rac-trans-4-((2-acrylamidocyclohexyl)oxy)-2-((5-carbamoyl-2-methylphenyl)amino)pyrimidine-5-carboxamide] | G (proived a mass modification ≦30%)
C=CC(=O)Nc1cc(C)ccc1Nc1nc(Nc2cc(OC)ccc2C)ncc1C(F)(F)F [Compound I-341, N-(2-((2-((5-methoxy-2-methylphenyl)amino)-5-(trifluoromethyl)pyrimidin-4-yl)amino)-5-methylphenyl)acrylamide] | E (provided a mass modification of ≧70%)
C=CC(=O)Nc1cc(OC)ccc1Nc1nc(Nc2ccc(N3CCC[C@H]3CO)cc2C#N)ncc1Cl [Compound I-163, (S)—N-(2-((5-chloro-2-((2-cyano-4-(2-(hydroxymethyl)pyrrolidin-1-yl)phenyl)amino)pyrimidin-4-yl)amino)-5-methoxyphenyl)acrylamide] | E (provided a mass modification of ≧70%)
C=CC(=O)Nc1ccccc1Nc1nc(NC2CCC(F)(F)CC2)ncc1Cl [Compound I-127, N-(2-((5-chloro-2-((4,4-difluorocyclohexyl)amino)pyrimidin-4-yl)amino)phenyl) acrylamide] | E (provided a mass modification of ≧70%)
C=CC(=O)Nc1ccccc1Nc1nc(Nc2cc(OC)nc(N3CCCCC3)c2)ncc1C(F)(F)F [Compound I-282, N-(2-((2-((2-Methoxy-6-(piperidin-1-yl)pyridin-4-yl)amino)-5-(trifluoromethyl)pyrimidin-4-yl)amino)phenyl)acrylamide] | E (provided a mass modification of ≧70%)
C=CC(=O)Nc1ccccc1Nc1nc(N[C@H]2CCN(C(C)=O)C2)ncc1C(F)(F)F [Compound I-56, (S)—N-(2-((2-((1-Acetylpyrrolidin-3-yl)amino)-5-(trifluoromethyl)pyrimidin-4-yl)amino)phenyl)acrylamide] | F (provided a mass modification of 31-69%)
C=CC(=O)Nc1cc(C)ccc1Nc1nc(Nc2cnc(OC)cc2C)ncc1C(F)(F)F [Compound I-350, N-(2-((2-((6-methoxy-4-methylpyridin-3-yl)amino)-5-(trifluoromethyl)pyrimidin-4-yl)amino)-5-methylphenyl)acrylamide] | F (provided a mass modification of 31-69%)
C=CC(=O)N[C@@H]1CCCC[C@H]1Nc1nc(Nc2cc(C(=O)NOCCO)ccc2C)ncc1C(N)=O (racemic) [Compound I-257, Rac-trans-4-((2-acrylamidocyclohexyl)amino)-2-((5-((2-hydroxyethoxy)carbamoyl)-2-methylphenyl)amino)pyrimidine-5-carboxamide] | G (proived a mass modification ≦30%)
C=CC(=O)Nc1cc(C)ccc1Nc1nc(Nc2nc(OC)ncc2OC)ncc1C(F)(F)F [Compound I-349, N-(2-((2-((2,5-dimethoxypyrimidin-4-yl)amino)-5-(trifluoromethyl)pyrimidin-4-yl)amino)-5-methylphenyl)acrylamide] | E (provided a mass modification of ≧70%)
C=CC(=O)N[C@@H]1CCCC[C@H]1Nc1nc(Nc2cc(C(N)=O)ccc2C)ncc1Cl (racemic) [Compound I-226, Rac-trans-3-((4-((2-acrylamidocyclohexyl)amino)-5-chloropyrimidin-2-yl)amino)-4-methylbenzamide] | E (provided a mass modification of ≧70%)
C=CC(=O)Nc1ccccc1Nc1nc(Nc2cc(C(=O)NCCO)c(F)cc2C)ncc1C(F)(F)F [Compound I-81, 5-((4-((2-Acrylamidophenyl)amino)-5-(trifluoromethyl)pyrimidin-2-yl)amino)-2-fluoro-N-(2-hydroxyethyl)-4-methylbenzamide] | E (provided a mass modification of ≧70%)
C=CC(=O)Nc1ccccc1Nc1nc(Nc2ccc(N3CCOCC3)cc2OC)ncc1N [Compound I-144, N-(2-((5-amino-2-((2-methoxy-4-morpholinophenyl)amino)pyrimidin-4-yl)amino)phenyl) acrylamide] | F (provided a mass modification of 31-69%)
C=CC(=O)Nc1ccccc1Nc1nc(NC2CCCCC2)ncc1Cl [Compound I-107, N-(2-((5-chloro-2-(cyclohexylamino)pyrimidin-4-yl)amino)phenyl) acrylamide] | E (provided a mass modification of ≧70%)
C=CC(=O)Nc1cc(F)ccc1Nc1nc(Nc2cc(C(N)=O)ccc2C#N)ncc1Cl [Compound I-207, 3-(4-(2-acrylamido-4-fluorophenylamino)-5-chloropyrimidin-2-ylamino)-4-cyanobenzamide] | E (provided a mass modification of ≧70%)
C=CC(=O)Nc1cc(C)ccc1Nc1nc(Nc2cc(OC)ncc2Cl)ncc1C(F)(F)F [Compound I-351, N-(2-((2-((5-chloro-2-methoxypyridin-4-yl)amino)-5-(trifluoromethyl)pyrimidin-4-yl)amino)-5-methylphenyl)acrylamide] | F (provided a mass modification of 31-69%)
C=CC(=O)Nc1ccccc1Nc1nc(N[C@H]2CCCNC2)ncc1Cl [Compound I-126, (S)—N-(2-((5-chloro-2-(piperidin-3-ylamino)pyrimidin-4-yl)amino)phenyl) acrylamide] | E (provided a mass modification of ≧70%)
